The conditions of data set [1]: human, microsomes, 0.1 μM, pH 7.4.
Method: (§1) Liver microsomal stability assays are conducted with human liver microsomes at a final liver microsomal protein concentration of 0.1007 mg per ml. Test compounds are prepared as solutions in 0.01% DMSO, 0.25% acetonitril and 0.25% methanol. The test compound is added to the reaction mixture at a final concentration of 0.1 μM and pre-incubated with pooled liver microsomes in phosphate buffer (pH 7.4) for 10 min on plate shaker in a 37° C. incubator. The reaction is initiated by adding a NADPH-generating system and incubated for 0, 15, 30, 45, and 60 min. The reaction is stopped by transferring the incubation mixture to Stop Buffer solvent (acetonitrile/methanol). Samples are then mixed and centrifuged. The supernatant samples are loaded onto the LC/MS/MS for analysis. Samples are analyzed by LC/MS/MS using multiple reaction monitoring (MRM). The UPLC system consists of a binary LC pump with autosampler, a C-18 column, and a gradient.
(§2) Four reference compounds are tested in each assay (Propranolol, imipramine, verapamil and terfenadine).
(§3) For data analysis, peak areas corresponding to the test compound are recorded. The compound remaining is calculated by comparing the peak area at each time point to time zero. The half-life is calculated from the slope of the initial linear range of the logarithmic curve of compound remaining (%) vs. time, assuming first order kinetics.
The conditions of data set [2]: 10 mg/kg p.o.; cited from earlier work.
The next data set can be described thus: in vitro. Conditions: human, microsomes, pH 7.4.
A further data set addresses V1a (Homo sapiens (Human), UniProt P37288). As to the kind of experiment: Activity assay in the agonistic mode, V1a. It is filed as biochemical.
The target of another data set is OT receptors (Homo sapiens (Human), UniProt P30559). As to the kind of experiment: Activity assay in the agonistic mode, OT receptors. It is filed as biochemical.
OT receptors, sequence (P30559 whole entry): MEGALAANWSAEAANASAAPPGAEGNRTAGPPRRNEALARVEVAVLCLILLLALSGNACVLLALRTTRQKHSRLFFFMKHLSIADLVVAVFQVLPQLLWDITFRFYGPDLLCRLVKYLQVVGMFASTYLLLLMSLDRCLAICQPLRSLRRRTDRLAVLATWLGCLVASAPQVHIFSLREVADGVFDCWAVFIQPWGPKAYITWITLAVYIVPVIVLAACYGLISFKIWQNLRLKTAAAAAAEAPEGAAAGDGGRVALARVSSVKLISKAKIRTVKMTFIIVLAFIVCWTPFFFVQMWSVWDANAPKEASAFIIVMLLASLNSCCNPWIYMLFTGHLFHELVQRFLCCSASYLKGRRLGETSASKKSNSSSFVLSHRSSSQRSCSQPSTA
The target in another data set is V2 (Homo sapiens (Human), UniProt P30518). Put plainly: Activity assay in the agonistic mode, V2. It is filed as biochemical.
V2, sequence (P30518 whole entry): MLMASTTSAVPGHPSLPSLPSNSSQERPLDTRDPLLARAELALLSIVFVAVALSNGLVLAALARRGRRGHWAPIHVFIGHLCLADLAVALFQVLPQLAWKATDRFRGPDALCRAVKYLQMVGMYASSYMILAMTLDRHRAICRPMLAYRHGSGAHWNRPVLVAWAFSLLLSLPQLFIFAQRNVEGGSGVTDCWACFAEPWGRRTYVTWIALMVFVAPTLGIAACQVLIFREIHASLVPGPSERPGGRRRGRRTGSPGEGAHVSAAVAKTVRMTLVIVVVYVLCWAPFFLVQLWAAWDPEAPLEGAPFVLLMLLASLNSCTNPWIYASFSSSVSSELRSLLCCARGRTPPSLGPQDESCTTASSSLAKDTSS
Data set [3] is described as follows: In vitro human liver microsomal (HLM) stability assay. Conditions: for Half-life: human liver microsomes, first order kinetics; for % Compound Remaining (Mean): 0.1 μM compound, human liver microsomes 0.1007 mg/ml. A general note: Microsomes from liver hold many membrane-bound enzymes, among them those of drug oxidation.
Method: as §1, §2, §3

Read-outs that look alike come from different tables or passages of the source. Where only a bound is given, the exact number is not on record here.

V1a, sequence (P37288 whole entry): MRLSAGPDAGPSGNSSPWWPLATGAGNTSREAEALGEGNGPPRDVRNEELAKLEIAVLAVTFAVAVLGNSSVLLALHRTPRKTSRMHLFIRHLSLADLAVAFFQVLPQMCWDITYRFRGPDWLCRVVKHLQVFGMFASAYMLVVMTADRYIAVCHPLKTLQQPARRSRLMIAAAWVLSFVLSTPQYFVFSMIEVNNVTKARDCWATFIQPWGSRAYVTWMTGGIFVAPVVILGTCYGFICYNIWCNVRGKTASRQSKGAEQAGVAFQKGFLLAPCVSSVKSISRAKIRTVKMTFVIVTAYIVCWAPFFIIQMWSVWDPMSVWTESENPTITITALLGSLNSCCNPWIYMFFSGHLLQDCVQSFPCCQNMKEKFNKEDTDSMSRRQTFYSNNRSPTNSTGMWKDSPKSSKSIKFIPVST

With `COc1ccc(S(=O)(=O)N2C(=O)[C@@](c3ccccc3OC)(N3C[C@H](O)C[C@H]3C(=O)N(C)C)c3cc(Cl)ccc32)c(OC)c1` [Nelivaptan, (2S,4R)-1-[(3R)-5-chloro-1-(2,4-dimethoxyphenyl)sulfonyl-3-(2-methoxyphenyl)-2-oxoindol-3-yl]-4-hydroxy-N,N-dimethylpyrrolidine-2-carboxamide, reference compound], the “% Compound Remaining (Mean)” value amounted to 100.0% in data set [1] (0 h); 3.8% in data set [1] (0.25 h); 0.4% in data set [1] (0.5 h); 0.1% in data set [1] (0.75 h); 0.03% in data set [1] (1 h). Further, the duration of action in data set [2] is recorded as more than 4 h. In the data set “in vitro”, the half-life (in general, the time needed for the level to fall by half in the phase considered) at 0.1 μM came to 3.2 min.

On to `[2H]C([2H])([2H])Oc1ccc(S(=O)(=O)N2C(=O)[C@@](c3ccccc3OC([2H])([2H])[2H])(N3C[C@H](O)C[C@H]3C(=O)N(C([2H])([2H])[2H])C([2H])([2H])[2H])c3cc(Cl)ccc32)c(OC([2H])([2H])[2H])c1` [Example 3, (2S,4R)1-[(3R)-5-chloro-1-[(2,4-dimeth-d6-oxyphenyl)sulfonyl]-2,3-dihydro-3-(2-methoxy-d3-phenyl)-2-oxo-1H-indol-3-yl]-4-hydroxy-N,N-dimethyl-d6-2-pyrrolidinecarboxamide], for which the “activity in the agonistic mode in comparison to undeuterated nelivaptan” value (from here on “activity in the agonistic mode”) at V1a, at OT receptors and at V2 was “no significant difference” in each case. Moreover, the “Half-life” value in data set [3] is listed as 6.2 min. Moreover, the “% Compound Remaining (Mean)” value in data set [3] (incubation 0 min) is listed as 100%; in data set [3] (incubation 15 min), 5.40%; in data set [3] (incubation 30 min), 0.39%; in data set [3] (incubation 45 min), 0.15%; in data set [3] (incubation 60 min) it was 0.13%.

For the compound `[2H]C([2H])([2H])Oc1ccccc1[C@@]1(N2C[C@H](O)C[C@H]2C(=O)N(C)C)C(=O)N(S(=O)(=O)c2ccc(OC)cc2OC)c2ccc(Cl)cc21` [Example 2, (2S,4R)1-[(3R)-5-chloro-1-[(2,4-dimethoxyphenyl)sulfonyl]-2,3-dihydro-3-(2-methoxy-d3-phenyl)-2-oxo-1H-indol-3-yl]-4-hydroxy-N,N-dimethyl-2-pyrrolidinecarboxamide], the “activity in the agonistic mode” value on V1a, at OT receptors and on V2 was “no significant difference” in each case. For the same compound, the “% Compound Remaining (Mean)” value in data set [1] (0 h) is 100.0%; in data set [1] (0.25 h), 7.7%; in data set [1] (0.5 h), 0.4%; in data set [1] (0.75 h), 0.1%; in data set [1] (1 h) it was 0.02%. This compound displayed a half-life at 0.1 μM in the data set “in vitro” of 4.1 min.

In the case of `[2H]C([2H])([2H])N(C(=O)[C@@H]1C[C@@H](O)CN1[C@]1(c2ccccc2OC)C(=O)N(S(=O)(=O)c2ccc(OC)cc2OC)c2ccc(Cl)cc21)C([2H])([2H])[2H]` [Example 1, (2S,4R)1-[(3R)-5-chloro-1-[(2,4-dimethoxyphenyl)sulfonyl]-2,3-dihydro-3-(2-methoxyphenyl)-2-oxo-1H-indol-3-yl]-4-hydroxy-N,N-dimethyl-d6-2-pyrrolidinecarboxamide], the “activity in the agonistic mode” value at V1a, on OT receptors and at V2 was “no significant difference” in each case. The “Half-life” value in data set [3] is 4.7 min. Besides, the “% Compound Remaining (Mean)” value in data set [3] (incubation 0 min) is on record as 100.0%; in data set [3] (incubation 15 min) it was 14.3%; in data set [3] (incubation 30 min), 1.2%; in data set [3] (incubation 45 min), 0.1%; in data set [3] (incubation 60 min), 0.03%.
